Measurements published in patent US12396458B2, “Fused ring substituted aromatic compound and preparation method therefor, herbicidal composition, and use thereof” (Qingdao Kingagroot Chemical Compound Co., Ltd., priority 2020, dated 2025).

Experiments:
Test in all cases: Weeding effect in post-emergence stage (greenhouse pot test)
Type in all cases: in vivo
Conyza japonica = settings: fresh weight control rate
Outline: (§1)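 Greenhouse pot plants sprayed at 2-3 leaf stage (2 weeks after sowing) with compound in acetone/Tween 80 plus 1.5 L/ha methyl oleate EC, at 500, 250, 125, 60, 15, 7.5 g a.i./ha. Fresh-weight growth control scored 3 weeks later on a 0-5 scale (level 5 >85%, level 0 <5%); three replicates averaged.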

Beckmannia syzigachne = settings: 3 weeks after application, fresh weight control rate
Outline: as §1

Alopecurus japonicus = settings: 3 weeks after application, fresh weight control rate
Outline: as §1

Capsella bursa-pastoris = settings: 3 weeks after application, fresh weight control rate
Outline: as §1

Setaria viridis = settings: dose 7.5 g a.i./ha, fresh weight control rate
Outline: as §1

Eleusine indica = settings: dose 7.5 g a.i./ha, fresh weight control rate
Outline: as §1

Digitaria sanguinalis = settings: dose 7.5 g a.i./ha, fresh weight control rate
Outline: as §1

Rorippa indica = settings: dose 7.5 g a.i./ha, fresh weight control rate
Outline: as §1

[1] = post-emergence, dose 15 g a.i./ha, 3 weeks after application
[2] = post-emergence, dose 125 g a.i./ha, 3 weeks after application
[3] = post-emergence control test, dose 7.5 g a.i./ha

Compound | Activity level (growth control rate), Conyza japonica (Conyza japonica; [1]) | Activity level (growth control rate), Beckmannia syzigachne (Beckmannia syzigachne; dose 15 g a.i./ha) | Activity level (growth control rate), Alopecurus japonicus (Alopecurus japonicus; dose 15 g a.i./ha) | Activity level (growth control rate), Capsella bursa-pastoris (Capsella bursa-pastoris; dose 15 g a.i./ha) | other results
Cn1c(C(F)(F)F)cc(=O)n(-c2cc(C3=NOC4(C(=O)Oc5ccccc5)CCCC34)c(Cl)cc2F)c1=O (stereo not drawn) [Compound 426] | 4 (Level 4: growth control rate is greater than or equal to 60% and less than 85%) | 4 (Level 4: growth control rate is greater than or equal to 60% and less than 85%) | 5 (Level 5: growth control rate is above 85%) | 5 (Level 5: growth control rate is above 85%) | –
Cn1c(C(F)(F)F)cc(=O)n(-c2cc(C3=NOC4(C(=O)N5CCCC5)CCCC34)c(Cl)cc2F)c1=O (stereo not drawn) [Compound 427] | 4 (Level 4: growth control rate is greater than or equal to 60% and less than 85%) | 4 (Level 4: growth control rate is greater than or equal to 60% and less than 85%) | 5 (Level 5: growth control rate is above 85%) | 5 (Level 5: growth control rate is above 85%) | –
COC(=O)C12CCC(F)C1C(c1cc(-n3c(=O)cc(C(F)(F)F)n(C)c3=O)c(F)cc1Cl)=NO2 (stereo not drawn) [Compound 441] | 4 (Level 4: growth control rate is greater than or equal to 60% and less than 85%) | 4 (Level 4: growth control rate is greater than or equal to 60% and less than 85%) | 4 (Level 4: growth control rate is greater than or equal to 60% and less than 85%) | 5 (Level 5: growth control rate is above 85%) | –
COC(=O)C12CCC(C)C1C(c1cc(-n3c(=O)cc(C(F)(F)F)n(C)c3=O)c(F)cc1Cl)=NO2 (stereo not drawn) [Compound 443] | 4 (Level 4: growth control rate is greater than or equal to 60% and less than 85%) | 5 (Level 5: growth control rate is above 85%) | 5 (Level 5: growth control rate is above 85%) | 5 (Level 5: growth control rate is above 85%) | –
CCOC(=O)C12CCC(=NOC)C1C(c1cc(-n3c(=O)cc(C(F)(F)F)n(C)c3=O)c(F)cc1Cl)=NO2 (stereo not drawn) [Compound 451] | 4 (Level 4: growth control rate is greater than or equal to 60% and less than 85%) | 4 (Level 4: growth control rate is greater than or equal to 60% and less than 85%) | 4 (Level 4: growth control rate is greater than or equal to 60% and less than 85%) | 5 (Level 5: growth control rate is above 85%) | –
CCOC(=O)C12ON=C(c3cc(-n4c(=O)cc(C(F)(F)F)n(C)c4=O)c(F)cc3Cl)C1CCC2Br (stereo not drawn) [Compound 474] | 4 (Level 4: growth control rate is greater than or equal to 60% and less than 85%) | 4 (Level 4: growth control rate is greater than or equal to 60% and less than 85%) | 4 (Level 4: growth control rate is greater than or equal to 60% and less than 85%) | 5 (Level 5: growth control rate is above 85%) | –
CCOC(=O)C12ON=C(c3cc(-n4c(=O)cc(C(F)(F)F)n(C)c4=O)c(F)cc3Cl)C1CCC2C (stereo not drawn) [Compound 476] | 4 (Level 4: growth control rate is greater than or equal to 60% and less than 85%) | 5 (Level 5: growth control rate is above 85%) | 5 (Level 5: growth control rate is above 85%) | 5 (Level 5: growth control rate is above 85%) | –
CCOC(=O)C12ON=C(c3cc(-n4c(=O)cc(C(F)(F)F)n(C)c4=O)c(F)cc3Cl)C1CCC2CC (stereo not drawn) [Compound 477] | 4 (Level 4: growth control rate is greater than or equal to 60% and less than 85%) | 4 (Level 4: growth control rate is greater than or equal to 60% and less than 85%) | 5 (Level 5: growth control rate is above 85%) | 5 (Level 5: growth control rate is above 85%) | –
COC(=O)C12CCCC1C(c1cc(-n3c(=S)cc(C(F)(F)F)n(C)c3=O)c(F)cc1Cl)=NO2 (stereo not drawn) [Compound 498] | 4 (Level 4: growth control rate is greater than or equal to 60% and less than 85%) | 5 (Level 5: growth control rate is above 85%) | 5 (Level 5: growth control rate is above 85%) | 5 (Level 5: growth control rate is above 85%) | –
COC(=O)C12CCCC1C(c1nc(-n3c(=O)cc(C(F)(F)F)n(C)c3=O)c(F)cc1Cl)=NO2 (stereo not drawn) [Compound 521] | 4 (Level 4: growth control rate is greater than or equal to 60% and less than 85%) | 5 (Level 5: growth control rate is above 85%) | 5 (Level 5: growth control rate is above 85%) | 5 (Level 5: growth control rate is above 85%) | –
CCOC(=O)CCC12CCCC1C(c1cc(-n3c(=O)n(C)c(=S)n(C)c3=O)c(F)cc1Cl)=NO2 (stereo not drawn) [Compound 530] | – | – | – | – | Activity level (growth control rate), Conyza japonica (Conyza japonica; [2]): 4 (Level 4: growth control rate is greater than or equal to 60% and less than 85%); Activity level (growth control rate), Beckmannia syzigachne (Beckmannia syzigachne; dose 125 g a.i./ha): 4 (Level 4: growth control rate is greater than or equal to 60% and less than 85%); Activity level (growth control rate), Alopecurus japonicus (Alopecurus japonicus; dose 125 g a.i./ha): 5 (Level 5: growth control rate is above 85%); Activity level (growth control rate), Capsella bursa-pastoris (Capsella bursa-pastoris; dose 125 g a.i./ha): 5 (Level 5: growth control rate is above 85%)
CCOC(=O)CCC12CCCC1C(c1cc(-n3c(=O)cc(C(F)(F)F)n(C)c3=O)c(F)cc1Cl)=NO2 (stereo not drawn) [Compound 533] | – | – | – | – | Activity level (growth control rate), Conyza japonica (Conyza japonica; [2]): 5 (Level 5: growth control rate is above 85%); Activity level (growth control rate), Beckmannia syzigachne (Beckmannia syzigachne; dose 125 g a.i./ha): 5 (Level 5: growth control rate is above 85%); Activity level (growth control rate), Alopecurus japonicus (Alopecurus japonicus; dose 125 g a.i./ha): 5 (Level 5: growth control rate is above 85%); Activity level (growth control rate), Capsella bursa-pastoris (Capsella bursa-pastoris; dose 125 g a.i./ha): 5 (Level 5: growth control rate is above 85%)
COC(=O)C12CCCC1C(c1cc(N3C(=O)C4=C(CCCC4)C3=O)c(F)cc1Cl)=NO2 (stereo not drawn) [Compound 542] | 4 (Level 4: growth control rate is greater than or equal to 60% and less than 85%) | 4 (Level 4: growth control rate is greater than or equal to 60% and less than 85%) | 5 (Level 5: growth control rate is above 85%) | 4 (Level 4: growth control rate is greater than or equal to 60% and less than 85%) | –
COC(=O)C12CCCC1C(c1cc(-c3ncc(C(F)(F)F)cc3Cl)c(F)cc1Cl)=NO2 (stereo not drawn) [Compound 585] | 4 (Level 4: growth control rate is greater than or equal to 60% and less than 85%) | 5 (Level 5: growth control rate is above 85%) | 5 (Level 5: growth control rate is above 85%) | 5 (Level 5: growth control rate is above 85%) | –
CCOC(=O)C1(C)CC(c2cc(-n3c(=O)n(C)c(=S)n(C)c3=O)c(F)cc2Cl)=NO1 (stereo not drawn) [Control compound A, reference compound] | – | – | – | – | Activity level (growth control rate), Setaria viridis (Setaria viridis): 2 (Level 2: growth control rate is greater than or equal to 20% and less than 40%); Activity level (growth control rate), Eleusine indica (Eleusine indica): 3 (Level 3: growth control rate is greater than or equal to 40% and less than 60%); Activity level (growth control rate), Digitaria sanguinalis (Digitaria sanguinalis): 2 (Level 2: growth control rate is greater than or equal to 20% and less than 40%); Activity level (growth control rate), Conyza japonica (Conyza japonica; [3]): 2 (Level 2: growth control rate is greater than or equal to 20% and less than 40%); Activity level (growth control rate), Rorippa indica (Rorippa indica): 2 (Level 2: growth control rate is greater than or equal to 20% and less than 40%)
CCOC(=O)C1(C)CC(c2cc(-n3c(=O)cc(C(F)(F)F)n(C)c3=O)c(F)cc2Cl)=NO1 (stereo not drawn) [Control compound B, reference compound] | – | – | – | – | Activity level (growth control rate), Setaria viridis (Setaria viridis): 3 (Level 3: growth control rate is greater than or equal to 40% and less than 60%); Activity level (growth control rate), Eleusine indica (Eleusine indica): 3 (Level 3: growth control rate is greater than or equal to 40% and less than 60%); Activity level (growth control rate), Digitaria sanguinalis (Digitaria sanguinalis): 2 (Level 2: growth control rate is greater than or equal to 20% and less than 40%); Activity level (growth control rate), Conyza japonica (Conyza japonica; [3]): 2 (Level 2: growth control rate is greater than or equal to 20% and less than 40%); Activity level (growth control rate), Rorippa indica (Rorippa indica): 2 (Level 2: growth control rate is greater than or equal to 20% and less than 40%)
